Data as given in patent US20250032477A1, “COMPOUNDS, PHARMACEUTICAL COMPOSITIONS, AND METHODS FOR THE TREATMENT, PREVENTION, OR MANAGEMENT OF HYPERPROLIFERATIVE DISORDERS” (VINCERX PHARMA GMBH, priority 2021, published 2025).
Read-outs that look alike come from different tables or passages of the source.

What was measured:
[1] = assay type: physicochemical
Excerpt: pH dependent ring-opening by hydrolysis of the lactone ring is an issue in the camptothecin class of agents. It is a pH dependent equilibrium between closed lactone form and ring-opened hydroxy acid form which is shifted to the closed ring at acidic pH and to the opened form under basic conditions. Only the lactone form is active. […] The closed and hydrolyzed open forms are differentiable by mass using the LC-MS methods described herein.
Method for acidic eluent: System MS: Waters TOF instrument; System UPLC: Waters Acquity I-CLASS; Column: Waters Acquity UPLC HSS T3 1.8 μm 50×1 mm; Eluent A: 1 L Water+0.100 ml 99% Formic acid (pH 3.4); Eluent B: 1 L Acetonitrile+0.100 ml 99% Formic acid; Gradient: 0.0 min 90% A→1.2 min 5% A→2.0 min 5% A Oven: 50° C.; Flow: 0.40 ml/min; UV-Detection: 210 nm.
Method for basic eluent: System MS: Thermo Scientific FT-MS; System UHPLC+: Thermo Scientific UltiMate 3000; Column: Waters, BEH c18 1.7μ, 2.1×50 mm, Eluent A: 1 L Water+1.0 mL (25% Ammonia) (pH of eluent A=10.2); Eluent B: 1 L Acetonitrile; Gradient: 0.0 min 5% B→2.5 min 95% B→3.5 min 95% B; Oven: 50° C.; Flow: 0.90 ml/min; UV-Detection: 210 nm/Optimum Integration Path 210-300 nm.

786-O = experiment: Cytotoxicity in vitro in the presence and absence of elastase (MTT); assay type: cell-based, human
How it was run: (§1)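 Cells seeded 24 h beforehand, then treated in triplicate with compound (10^−5 to 10^−13 M) alone or with 10 nM elastase for 72 h at 37 °C. Proliferation measured by MTT (4 h reagent, overnight lysis, absorbance 570 nm), normalised to untreated cells.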

HT29 [2] = experiment: as above; assay type: cell-based, human
How it was run: as §1

NCI H292 [3] = experiment: as above; assay type: cell-based, human
How it was run: as §1

SUM149 [4] = experiment: as above; assay type: cell-based
How it was run: as §1

SUM149 [5] = experiment: Cytotoxicity in vitro in the presence and absence of legumain; assay type: cell-based; details: SUM149 cells
NCI H292 [6] = experiment: as above; assay type: cell-based; details: Homo sapiens, NCI H292 cells
HT29 [7] = experiment: as above; assay type: cell-based; details: Homo sapiens, HT-29, HT29 cells

With `CCCNC(=O)Nc1cccc(S(=O)(=O)Nc2cccc([C@@H](CC(=O)[O-])NC(=O)Nc3ccc(NC(=O)NCCOCCOCCOCCC(=O)N[C@@H](CC(=O)[O-])C(=O)N4CCC[C@H]4C(=O)N[C@H](C(=O)O[C@]4(CC)C(=O)OCc5c4cc4n(c5=O)Cc5c-4nc4cc(F)c(C)c6c4c5[C@@H](NC(C)=O)CC6)C(C)C)cc3)c2)c1.[Na+].[Na+]` [Compound 2, disodium (1S,9S)-1-acetamido-9-ethyl-5-fluoro-4-methyl-10,13-dioxo-2,3,9,10,13,15-hexahydro-1H,12H-benzo[de]pyrano[3′,4′:6,7]indolizino[1,2-b]quinolin-9-yl 1-[(2S)-2-(carboxylatomethyl)-17-{4-[({(1R)-2-carboxylato-1-[3-({3-[(propylcarbamoyl)amino]benzene-1-sulfonyl}amino)phenyl]ethyl}carbamoyl)amino]anilino}-4,17-dioxo-7,10,13-trioxa-3,16-diazaheptadecanan-1-oyl]-L-prolyl-L-valinate] the “Lactone ring form detected by LC-MS, acidic eluent” value ([1]; acidic eluent (pH 3.4), UV and mass detection) was “only the closed form (201)”, the “Lactone ring form detected by LC-MS, basic eluent” value ([1]; basic eluent (pH of eluent A=10.2), UV and mass detection) was “No open form (203) was detected” and the IC50 (786-O; 786-O cells, with 10 nM elastase, 72 h, MTT, read-out: 786-O IC50 w elastase) was 0.01 to 0.1 nM. For the same compound, the IC50 (786-O; 786-O cells, without elastase, 72 h, MTT, read-out: 786-O IC50 w/o) was 10 to 100 nM, the IC50 (HT29 [2]; HT29 cells, with 10 nM elastase, 72 h, MTT, read-out: HT29 IC50 w elastase) was 0.1 to 1 nM and the IC50 (HT29 [2]; HT29 cells, without elastase, 72 h, MTT, read-out: HT29 IC50 w/o) was > 100 nM. For the same compound, the IC50 (NCI H292 [3]; NCI H292 cells, with 10 nM elastase, 72 h, MTT, read-out: NCI H292 IC 50 w elastase) was 0.1 to 1 nM, the IC50 (NCI H292 [3]; NCI H292 cells, without elastase, 72 h, MTT, read-out: NCI H292 IC 50 w/o) was 1.1 to 10 nM and the IC50 (SUM149 [4]; SUM149 cells, with 10 nM elastase, 72 h, MTT, read-out: SUM149 IC50 w elastase) was 0.01 to 0.1 nM. It also gave an IC50 (SUM149 [4]; SUM149 cells, without elastase, 72 h, MTT, read-out: SUM149 IC50 w/o) of 1.1 to 10 nM.

In the case of `CCCNC(=O)Nc1cccc(S(=O)(=O)Nc2cccc([C@@H](CC(=O)O)NC(=O)Nc3ccc(NC(=O)NCCOCCOCCOCCC(=O)N[C@@H](CC(=O)O)C(=O)N4CCC[C@H]4C(=O)N[C@H](C(=O)O[C@]4(CC)C(=O)OCc5c4cc4n(c5=O)Cc5c-4nc4cc(F)c(C)c6c4c5[C@@H](N)CC6)C(C)C)cc3)c2)c1` [Compound 4, (1S,9S)-1-amino-9-ethyl-5-fluoro-4-methyl-10,13-dioxo-2,3,9,10,13,15-hexahydro-1H,12H-benzo[de]pyrano[3′,4′:6,7]indolizino[1,2-b]quinolin-9-yl N-(14-{4-[({(1R)-2-carboxy-1-[3-({3-[(propylcarbamoyl)amino]benzene-1-sulfonyl}amino)phenyl]ethyl}carbamoyl)amino]anilino}-14-oxo-4,7,10-trioxa-13-azatetradecanan-1-oyl)-L-alpha-aspartyl-L-prolyl-L-valinate], the “Lactone ring form detected by LC-MS, acidic eluent” value ([1]; pH 3.4) is reported as “only the closed form (301) was detected”, the IC50 (786-O; read-out: 786-O IC50 w elastase) is reported as 0.01 to 0.1 nM and the IC50 (786-O; read-out: 786-O IC50 w/o) is reported as 1.1 to 10 nM. For the same compound, the IC50 (HT29 [2]; read-out: HT29 IC50 w elastase) was 0.01 to 0.1 nM, the IC50 (HT29 [2]; read-out: HT29 IC50 w/o) was 10 to 100 nM and the IC50 (NCI H292 [3]; read-out: NCI H292 IC 50 w elastase) was 0.01 to 0.1 nM. For the same compound, the IC50 (NCI H292 [3]; read-out: NCI H292 IC 50 w/o) was 1.1 to 10 nM, the IC50 (SUM149 [4]; read-out: SUM149 IC50 w elastase) was < 0.01 nM and the IC50 (SUM149 [4]; read-out: SUM149 IC50 w/o) was 1.1 to 10 nM.

Work on `CC[C@@]1(O)C(=O)OCc2c1cc1n(c2=O)Cc2c-1nc1cc(F)c(C)c3c1c2[C@@H](NC(=O)[C@H](CC(N)=O)NC(=O)[C@H](C)N(C)C(=O)[C@H](C)NC(=O)Cc1ccncc1)CC3` [Compound 11, N-[(pyridin-4-yl)acetyl]-L-alanyl-N-methyl-L-alanyl-N^1-[(1S,9S)-9-ethyl-5-fluoro-9-hydroxy-4-methyl-10,13-dioxo-2,3,9,10,13,15-hexahydro-1H, 12H-benzo[de]pyrano [3′,4′:6,7]indolizino [1,2-b]quinolin-1-yl]-L-aspartamide] yielded an IC50 (SUM149 [5]; with legumain, read-out: SUM149 IC50 w legumain) of 1.1 to 10 nM, an IC50 (SUM149 [5]; without legumain, read-out: SUM149 IC50 w/o) of 1.1 to 10 nM and an IC50 (NCI H292 [6]; with legumain, read-out: NCI H292 IC50 w legumain) of 11 to 100 nM. The IC50 (NCI H292 [6]; without legumain, read-out: NCI H292 IC50 w/o) was 11 to 100 nM, the IC50 (HT29 [7]; with legumain, read-out: HT29 IC50 w legumain) was > 100 nM and the IC50 (HT29 [7]; without legumain, read-out: HT29 IC50 w/o) was > 100 nM.
